Assay results from the supplement of paper PMC10307832.

Experiments:
[1] = compound: C(C(=O)C(=O)O)Br [Bromopyruvate] + CC1(C)CCC(c2ccc(Cl)cc2)=C(CN2CCN(c3ccc(C(=O)NS(=O)(=O)c4ccc(N[C@H](CCN5CCOCC5)CSc5ccccc5)c(S(=O)(=O)C(F)(F)F)c4)cc3)CC2)C1 [Navitoclax] (partner 0.5 µM); test: relative viability (nuclei count vs DMSO), 5 days (fraction); higher = more cells survive
Summary of the method: (§1)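 Lung cancer cell lines in 1536-well plates got either a single drug or a fixed anchor-drug dose together with five library-drug doses (not always all listed) in √10 steps, by pin tool, on the day after seeding. Nuclei were counted after 5 days, and relative viability is the treated-to-vehicle ratio of nuclei counts. Values are medians of duplicate plates.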

[2] = compound: CC(O)(CS(=O)(=O)c1ccc(F)cc1)C(=O)Nc1ccc(C#N)c(C(F)(F)F)c1 [Bicalutamide] + COc1cc2c(Oc3ccc(NC(=O)C4(C(=O)Nc5ccc(F)cc5)CC4)cc3F)ccnc2cc1OCCCN1CCOCC1 [Foretinib] (partner 0.25 µM); test: as above
Summary of the method: as §1

Cell Line | relative viability ([1]; first compound 1 µM) | relative viability ([1]; first compound 3.162 µM) | relative viability ([1]; first compound 10 µM) | relative viability ([1]; first compound 31.62 µM) | relative viability ([1]; first compound 100 µM) | relative viability ([2]; first compound 0.08 µM) | relative viability ([2]; first compound 0.253 µM) | relative viability ([2]; first compound 0.8 µM) | relative viability ([2]; first compound 2.53 µM)
NCI-H1650 | 1.09 | 1.31 | 1.42 | 1.47 | 1.19 | 1.28 | 1.17 | 1.14 | 1.27
NCI-H2087 | 0.974 | 1.08 | 0.987 | 0.966 | 1.02 | 1.14 | 1.17 | 1.15 | 0.993
NCI-H1793 | 0.673 | 0.376 | 0.377 | 0.516 | 0.511 | 0.796 | 0.553 | 0.983 | 0.792
LC-2-ad | 0.436 | 0.404 | 0.35 | 0.459 | 0.476 | 0.969 | 0.829 | 1.02 | 1.03
COR-L 105 | 0.757 | 0.962 | 0.689 | 0.688 | 0.549 | 1.35 | 0.976 | 0.859 | 0.784
NCI-H1355 | 0.936 | 0.982 | 1 | 0.901 | 0.91 | 1.03 | 0.963 | 1.1 | 1.03
H3255 | 0.575 | 0.603 | 0.512 | 0.504 | 0.512 | 0.901 | 0.827 | – | 0.84
NCI-H2009 | 1.15 | 1.26 | 1.22 | 1.06 | 0.899 | 1.35 | 1.23 | 1.19 | 1.17
NCI-H1734 | 0.76 | 0.799 | 0.975 | 0.809 | 0.886 | 0.925 | 0.731 | 1 | 0.809
HOP-62 | 1.05 | 0.961 | 1.12 | 1.08 | 0.899 | 1.11 | 1.13 | 1.29 | 1.26
LOU-NH91 | 0.835 | 0.611 | 0.759 | 0.84 | 0.783 | 0.969 | 0.79 | 0.963 | 0.96
ChaGo-K-1 | 1.17 | 0.99 | 0.963 | 0.96 | 0.879 | 0.897 | 0.748 | 0.937 | 0.825
NCI-H23 | 0.855 | 0.807 | 0.983 | 0.768 | 0.77 | 0.905 | 0.876 | 1.01 | 0.965
PC-3 [JPC-3] | 0.751 | 0.811 | 0.838 | 0.727 | 0.828 | 1.01 | 1.02 | 1.07 | 1.11
NCI-H1437 | 1.11 | 1.09 | 1.11 | 1.09 | 1.17 | 1.28 | 1.29 | 1.24 | 1.27
NCI-H520 | 1.05 | 1.08 | 1.21 | 1.18 | 1.03 | 0.856 | 0.708 | 0.773 | 0.621
NCI-H1666 | 0.957 | 1.12 | 1.03 | 1.01 | 0.754 | 0.927 | 0.975 | 0.913 | 0.977
NCI-H1651 | 1.04 | 0.97 | 1.07 | 0.96 | 1.2 | 0.89 | 0.734 | 1.01 | 0.884
NCI-H1755 | 1.06 | 1.02 | 0.977 | 1.03 | 1.03 | 0.895 | 0.883 | 0.96 | 0.853

Cell Line | relative viability ([1]; first compound 1 µM) | relative viability ([1]; first compound 3.162 µM) | relative viability ([1]; first compound 10 µM) | relative viability ([1]; first compound 31.62 µM) | relative viability ([1]; first compound 100 µM) | relative viability ([2]; first compound 0.08 µM) | relative viability ([2]; first compound 0.253 µM) | relative viability ([2]; first compound 0.8 µM) | relative viability ([2]; first compound 2.53 µM)
NCI-H727 | 0.469 | 0.526 | 0.401 | 0.425 | 0.509 | 1 | 0.689 | 1.23 | 0.914
HARA | 1.12 | 1.16 | 1.13 | 1.17 | 1.14 | 0.931 | 0.836 | 1.17 | 0.897
NCI-H647 | 1.17 | 1.3 | 1.49 | 1.18 | 1.19 | 1.08 | 1.16 | 1.23 | 1.14
NCI-H1563 | – | – | – | – | – | 0.888 | 0.872 | 0.89 | 0.897
NCI-H2347 | 0.714 | 0.742 | 1.13 | 0.553 | 0.778 | 1.26 | 1.35 | 1.34 | 1.04
A549 | 1.23 | 1.22 | 1.36 | 1.22 | 1.33 | 0.907 | 1.02 | 1.01 | 0.927
LCLC-97TM1 | – | – | 0.538 | 0.492 | 0.316 | 0.871 | 0.923 | 1.04 | 0.96
EPLC-272H | 1.15 | 1.22 | 1.01 | 1.2 | 1.34 | 0.606 | 0.841 | 0.817 | 0.679
NCI-H1915 | 0.827 | 0.765 | 0.792 | 0.824 | 0.801 | 0.753 | 1.06 | 1.11 | 1.13
NCI-H3122 | 1.03 | 0.974 | 1.08 | 1.01 | 1.03 | 1.02 | 0.9 | 0.996 | 1.01
NCI-H441 | 0.539 | 0.441 | 0.557 | 0.439 | 0.493 | 1.19 | 0.894 | 0.964 | 0.787
NCI-H2170 | 0.549 | 0.533 | 0.577 | 0.541 | 0.57 | 0.993 | 1 | 1.1 | 0.98
NCI-H1623 | – | – | – | – | – | 0.883 | 0.884 | 0.918 | 0.869
SW 900 | – | – | – | – | – | 1.15 | 0.866 | 1.04 | 1.07
NCI-H1395 | 1.24 | 1.24 | 1.28 | 1.17 | 1.21 | 0.938 | 0.94 | 1.23 | 0.874
IA-LM | 0.798 | 0.723 | 0.654 | 0.763 | 0.818 | 1.22 | 1.1 | 1.17 | 1.18
NCI-H358 | – | – | – | – | – | 0.767 | 0.565 | 0.958 | 0.73
PC-14 | 1.02 | 1.02 | 1.07 | 1.02 | 1.01 | 0.951 | 0.905 | 1.03 | 0.965
CAL-12T | 1.06 | 1.23 | 1.34 | 1.34 | 1.08 | 1.11 | 1.04 | 1.32 | 1.13
